The target of assay [1] is T1, Non-receptor tyrosine-protein kinase TNK1 (Homo sapiens) (UniProt Q13470).
T1 sequence (whole entry): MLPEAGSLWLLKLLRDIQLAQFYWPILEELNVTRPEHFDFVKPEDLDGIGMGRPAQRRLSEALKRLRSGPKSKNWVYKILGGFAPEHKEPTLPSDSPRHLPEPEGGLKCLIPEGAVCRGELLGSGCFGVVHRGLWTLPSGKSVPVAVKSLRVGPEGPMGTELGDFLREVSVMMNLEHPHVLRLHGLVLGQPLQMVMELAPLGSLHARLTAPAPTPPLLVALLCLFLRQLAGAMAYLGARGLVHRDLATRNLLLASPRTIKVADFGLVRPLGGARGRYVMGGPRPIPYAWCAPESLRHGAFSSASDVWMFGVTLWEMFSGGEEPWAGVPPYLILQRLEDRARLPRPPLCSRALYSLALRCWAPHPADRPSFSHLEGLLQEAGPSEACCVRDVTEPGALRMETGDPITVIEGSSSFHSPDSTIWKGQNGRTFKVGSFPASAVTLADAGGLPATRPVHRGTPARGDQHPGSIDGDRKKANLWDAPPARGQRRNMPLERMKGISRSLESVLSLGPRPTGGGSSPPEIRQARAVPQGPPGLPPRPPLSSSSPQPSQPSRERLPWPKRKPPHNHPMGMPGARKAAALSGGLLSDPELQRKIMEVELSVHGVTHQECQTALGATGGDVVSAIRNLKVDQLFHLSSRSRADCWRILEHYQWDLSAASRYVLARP
The experiment in a line: Inhibition of TNK1 (unknown origin) assessed as residual activity at 1000 nM by KINOMEscan analysis relative to control.

For assay [2], the system named is Tyrosine-protein kinase ABL1 (Homo sapiens), P00519 [F317I]. The assay is described as follows: Inhibition of nonphosphorylated ABL1 F317I mutant (unknown origin) assessed as residual activity at 1000 nM by KINOMEscan analysis relative to control.
Sequence of Tyrosine-protein kinase ABL1 (Homo sapiens), P00519 [F317I] (P00519 whole entry F317I): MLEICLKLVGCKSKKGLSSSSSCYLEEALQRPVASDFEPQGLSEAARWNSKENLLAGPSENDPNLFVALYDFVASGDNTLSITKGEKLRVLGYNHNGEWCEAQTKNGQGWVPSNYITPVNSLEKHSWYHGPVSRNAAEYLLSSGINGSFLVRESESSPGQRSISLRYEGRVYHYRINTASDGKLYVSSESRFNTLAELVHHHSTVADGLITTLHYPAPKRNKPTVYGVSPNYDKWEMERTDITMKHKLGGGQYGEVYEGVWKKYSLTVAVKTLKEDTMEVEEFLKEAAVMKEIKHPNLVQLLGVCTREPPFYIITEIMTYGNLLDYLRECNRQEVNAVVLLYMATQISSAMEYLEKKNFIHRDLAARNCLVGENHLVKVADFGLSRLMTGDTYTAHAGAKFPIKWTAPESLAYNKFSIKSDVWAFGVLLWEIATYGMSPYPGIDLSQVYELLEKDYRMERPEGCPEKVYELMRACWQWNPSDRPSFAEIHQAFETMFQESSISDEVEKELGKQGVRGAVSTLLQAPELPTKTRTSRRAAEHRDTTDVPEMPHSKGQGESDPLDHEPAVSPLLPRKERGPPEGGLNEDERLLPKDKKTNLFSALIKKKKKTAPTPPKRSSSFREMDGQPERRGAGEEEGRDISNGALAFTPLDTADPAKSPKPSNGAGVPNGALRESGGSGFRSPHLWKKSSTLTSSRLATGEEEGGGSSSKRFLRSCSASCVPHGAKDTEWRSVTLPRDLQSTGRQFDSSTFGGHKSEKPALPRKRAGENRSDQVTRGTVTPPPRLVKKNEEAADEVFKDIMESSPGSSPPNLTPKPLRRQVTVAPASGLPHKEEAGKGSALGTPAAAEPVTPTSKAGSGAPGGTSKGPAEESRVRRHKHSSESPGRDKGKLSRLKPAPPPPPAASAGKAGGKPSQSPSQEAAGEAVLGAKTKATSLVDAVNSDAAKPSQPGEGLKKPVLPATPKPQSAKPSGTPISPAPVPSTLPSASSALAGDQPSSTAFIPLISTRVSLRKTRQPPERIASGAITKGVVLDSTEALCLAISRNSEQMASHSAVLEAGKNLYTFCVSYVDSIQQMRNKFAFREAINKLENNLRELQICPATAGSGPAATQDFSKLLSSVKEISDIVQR
The target in assay [3] is Dual specificity protein kinase CLK2 (Homo sapiens) (UniProt P49760). The experiment in a line: Inhibition of CLK2 (unknown origin) assessed as residual activity at 1000 nM by KINOMEscan analysis relative to control.
Sequence of Dual specificity protein kinase CLK2 (Homo sapiens) (P49760 whole entry, looked up): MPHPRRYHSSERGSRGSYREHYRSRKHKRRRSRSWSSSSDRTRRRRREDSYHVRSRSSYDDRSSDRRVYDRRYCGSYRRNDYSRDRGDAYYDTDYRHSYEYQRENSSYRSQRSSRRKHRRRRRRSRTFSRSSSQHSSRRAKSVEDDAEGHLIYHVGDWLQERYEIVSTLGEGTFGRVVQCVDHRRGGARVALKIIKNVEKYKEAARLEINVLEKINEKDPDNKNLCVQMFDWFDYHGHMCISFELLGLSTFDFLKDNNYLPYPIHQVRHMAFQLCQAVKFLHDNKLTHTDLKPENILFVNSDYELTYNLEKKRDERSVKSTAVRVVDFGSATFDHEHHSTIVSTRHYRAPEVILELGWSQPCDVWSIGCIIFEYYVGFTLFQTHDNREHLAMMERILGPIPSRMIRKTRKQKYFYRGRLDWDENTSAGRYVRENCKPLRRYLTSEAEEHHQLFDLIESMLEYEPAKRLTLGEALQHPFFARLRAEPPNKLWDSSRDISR
For assay [4], the species on record is Homo sapiens. The experiment in a line: Inhibition of JNK3 (unknown origin) assessed as residual activity at 1000 nM by KINOMEscan analysis relative to control.
Assay [5] concerns the target T2, Tyrosine-protein kinase receptor TYRO3 (Homo sapiens) (UniProt Q06418).
T2 sequence (whole entry): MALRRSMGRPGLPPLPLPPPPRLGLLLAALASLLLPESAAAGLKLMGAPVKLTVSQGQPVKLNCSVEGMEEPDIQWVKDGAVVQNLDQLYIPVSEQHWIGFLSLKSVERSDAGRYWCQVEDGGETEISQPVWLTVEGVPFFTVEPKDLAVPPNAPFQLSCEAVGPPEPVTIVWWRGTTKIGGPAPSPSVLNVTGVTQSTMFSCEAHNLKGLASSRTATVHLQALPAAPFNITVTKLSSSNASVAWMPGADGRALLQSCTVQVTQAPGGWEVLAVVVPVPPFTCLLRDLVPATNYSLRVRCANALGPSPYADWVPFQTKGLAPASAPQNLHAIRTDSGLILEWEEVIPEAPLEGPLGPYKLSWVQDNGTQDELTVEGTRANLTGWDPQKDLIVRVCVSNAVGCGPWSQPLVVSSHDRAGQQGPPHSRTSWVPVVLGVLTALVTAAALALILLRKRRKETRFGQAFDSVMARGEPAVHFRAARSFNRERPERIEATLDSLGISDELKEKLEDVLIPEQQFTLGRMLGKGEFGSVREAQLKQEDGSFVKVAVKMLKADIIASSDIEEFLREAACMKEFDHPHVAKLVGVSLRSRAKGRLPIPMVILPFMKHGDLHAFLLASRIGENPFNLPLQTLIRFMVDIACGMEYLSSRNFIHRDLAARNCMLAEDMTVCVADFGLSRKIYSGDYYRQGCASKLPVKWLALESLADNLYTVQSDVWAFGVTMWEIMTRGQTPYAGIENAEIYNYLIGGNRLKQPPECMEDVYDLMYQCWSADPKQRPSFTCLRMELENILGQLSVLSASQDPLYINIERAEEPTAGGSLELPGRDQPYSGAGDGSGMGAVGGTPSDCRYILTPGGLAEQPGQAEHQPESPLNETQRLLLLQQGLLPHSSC
The experiment in a line: Inhibition of TYRO3 (unknown origin) assessed as residual activity at 1000 nM by KINOMEscan analysis relative to control.

The target of assay [6] is T3, Serine/threonine-protein kinase BRSK2 (Homo sapiens) (UniProt Q8IWQ3).
T3 sequence (whole entry): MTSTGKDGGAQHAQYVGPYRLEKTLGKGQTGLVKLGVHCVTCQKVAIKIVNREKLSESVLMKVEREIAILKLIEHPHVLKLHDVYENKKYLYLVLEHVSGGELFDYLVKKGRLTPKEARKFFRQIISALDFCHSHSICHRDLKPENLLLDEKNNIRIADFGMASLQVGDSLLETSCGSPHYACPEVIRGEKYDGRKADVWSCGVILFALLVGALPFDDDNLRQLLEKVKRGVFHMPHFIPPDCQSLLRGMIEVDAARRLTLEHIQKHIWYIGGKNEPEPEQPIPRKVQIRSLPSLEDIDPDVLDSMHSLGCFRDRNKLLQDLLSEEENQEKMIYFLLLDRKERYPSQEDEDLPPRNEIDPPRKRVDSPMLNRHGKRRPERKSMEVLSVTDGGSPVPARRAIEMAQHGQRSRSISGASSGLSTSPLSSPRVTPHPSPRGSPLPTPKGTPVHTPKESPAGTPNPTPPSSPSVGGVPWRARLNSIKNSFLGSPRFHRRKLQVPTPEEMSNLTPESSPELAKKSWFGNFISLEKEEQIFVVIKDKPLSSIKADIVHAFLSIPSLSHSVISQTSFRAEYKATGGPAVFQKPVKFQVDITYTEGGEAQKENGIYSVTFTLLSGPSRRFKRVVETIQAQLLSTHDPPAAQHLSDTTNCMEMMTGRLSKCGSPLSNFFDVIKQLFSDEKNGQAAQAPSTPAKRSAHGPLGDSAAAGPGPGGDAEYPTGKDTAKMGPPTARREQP
The assay is described as follows: Inhibition of BRSK2 (unknown origin) assessed as residual activity at 1000 nM by KINOMEscan analysis relative to control.

Assay [7] concerns the target Tyrosine-protein kinase Fer (Homo sapiens) (UniProt P16591). The assay is described as follows: Inhibition of FER (unknown origin) assessed as residual activity at 1000 nM by KINOMEscan analysis relative to control.
Assay [8] has as its target Serine/threonine-protein kinase tousled-like 2 (Homo sapiens) (UniProt Q86UE8). The experiment in a line: Inhibition of TLK2 (unknown origin) assessed as residual activity at 1000 nM by KINOMEscan analysis relative to control.

Sequence of Tyrosine-protein kinase Fer (Homo sapiens) (P16591 whole entry, looked up): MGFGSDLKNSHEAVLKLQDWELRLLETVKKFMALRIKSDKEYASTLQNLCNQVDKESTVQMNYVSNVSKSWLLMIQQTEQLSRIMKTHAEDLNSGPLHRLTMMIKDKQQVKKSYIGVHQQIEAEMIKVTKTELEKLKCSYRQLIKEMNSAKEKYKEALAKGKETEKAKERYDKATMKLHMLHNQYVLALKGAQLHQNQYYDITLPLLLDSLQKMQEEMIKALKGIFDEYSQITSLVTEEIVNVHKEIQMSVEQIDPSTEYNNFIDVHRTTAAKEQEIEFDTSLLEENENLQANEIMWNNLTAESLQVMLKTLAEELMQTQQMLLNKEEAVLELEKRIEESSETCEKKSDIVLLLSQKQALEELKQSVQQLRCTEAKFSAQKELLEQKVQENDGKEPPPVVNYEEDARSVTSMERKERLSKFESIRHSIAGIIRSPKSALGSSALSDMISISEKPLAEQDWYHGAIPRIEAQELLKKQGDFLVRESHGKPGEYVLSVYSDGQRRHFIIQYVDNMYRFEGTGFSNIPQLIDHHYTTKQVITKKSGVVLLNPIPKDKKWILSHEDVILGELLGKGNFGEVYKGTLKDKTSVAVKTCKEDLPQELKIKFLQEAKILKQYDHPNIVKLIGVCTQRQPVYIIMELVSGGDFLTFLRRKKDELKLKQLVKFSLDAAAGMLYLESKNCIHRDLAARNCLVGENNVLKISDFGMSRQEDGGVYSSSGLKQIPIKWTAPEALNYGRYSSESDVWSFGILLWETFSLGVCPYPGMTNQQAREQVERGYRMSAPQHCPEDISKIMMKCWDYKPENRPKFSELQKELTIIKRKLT
Sequence of Serine/threonine-protein kinase tousled-like 2 (Homo sapiens) (Q86UE8 whole entry, looked up): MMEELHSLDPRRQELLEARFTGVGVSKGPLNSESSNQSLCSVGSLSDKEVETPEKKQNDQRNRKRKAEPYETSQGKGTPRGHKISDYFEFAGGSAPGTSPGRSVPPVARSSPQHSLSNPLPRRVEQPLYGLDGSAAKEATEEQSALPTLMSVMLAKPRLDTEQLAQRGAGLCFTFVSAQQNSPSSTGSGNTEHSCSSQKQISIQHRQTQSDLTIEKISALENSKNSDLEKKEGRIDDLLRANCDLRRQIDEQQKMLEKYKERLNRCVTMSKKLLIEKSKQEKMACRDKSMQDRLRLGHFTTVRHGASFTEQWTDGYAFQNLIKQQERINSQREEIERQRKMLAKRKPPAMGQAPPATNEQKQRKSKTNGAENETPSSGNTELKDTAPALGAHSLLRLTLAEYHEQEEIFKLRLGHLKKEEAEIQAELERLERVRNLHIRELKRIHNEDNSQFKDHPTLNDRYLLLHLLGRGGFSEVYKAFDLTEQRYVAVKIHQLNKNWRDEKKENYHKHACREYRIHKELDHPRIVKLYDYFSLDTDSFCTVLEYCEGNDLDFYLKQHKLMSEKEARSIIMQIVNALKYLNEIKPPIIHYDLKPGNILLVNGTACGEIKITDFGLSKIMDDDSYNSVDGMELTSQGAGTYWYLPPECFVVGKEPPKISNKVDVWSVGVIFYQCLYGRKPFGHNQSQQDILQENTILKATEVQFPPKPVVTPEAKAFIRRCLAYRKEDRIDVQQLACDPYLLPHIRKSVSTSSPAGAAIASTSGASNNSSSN

Regarding `COc1cc2nc(C)nc(N[C@H](C)c3cccc(-c4cn[nH]c4)c3)c2cc1OC`, the Activity in assay [1] stood at 100%; in assay [2] it was 84%; in assay [3], 78%; in assay [4], 80%; in assay [5], 66%; in assay [6] it was 85%. Further, the Activity worked out at 99% in assay [7] and 83% in assay [8].

As to `COc1cc2ncnc(N[C@H](C)c3cccc4ccccc34)c2cc1OC`, the Activity in assay [1] was 100%; in assay [2], 86%; in assay [3], 100%; in assay [4], 97%; in assay [5], 90%; in assay [6] it was 78%. The Activity in assay [7] was 97%; in assay [8] it was 77%.

(Values after ChEMBL document CHEMBL5678818, “Discovery of potent SOS1 inhibitors that block RAS activation via disruption of the RAS-SOS1 interaction” (Proc Natl Acad Sci U S A, 2019).)
